Data published in patent publication US20190047966A1, “NOVEL COMPOUND AND PHARMACOLOGICALLY ACCEPTABLE SALT THEREOF” (MEIJI SEIKA PHARMA CO., LTD., priority 2016, published 2019).
Where a name gives a salt, the structure may show the parent alone.

Legend:
[1] = molecular target: T1, human histamine H4 receptor (Homo sapiens, UniProt Q9H3N8); experiment: Evaluation of Human H4 Receptor Affinity ([3H]histamine binding); settings: inhibition constant Ki, CHO-K1 membrane preparation, read-out: Evaluation of H4 Receptor Affinity
T1 construct: purchased PerkinElmer Inc; host or cells: CHO-K1
T1 sequence (Q9H3N8 whole entry): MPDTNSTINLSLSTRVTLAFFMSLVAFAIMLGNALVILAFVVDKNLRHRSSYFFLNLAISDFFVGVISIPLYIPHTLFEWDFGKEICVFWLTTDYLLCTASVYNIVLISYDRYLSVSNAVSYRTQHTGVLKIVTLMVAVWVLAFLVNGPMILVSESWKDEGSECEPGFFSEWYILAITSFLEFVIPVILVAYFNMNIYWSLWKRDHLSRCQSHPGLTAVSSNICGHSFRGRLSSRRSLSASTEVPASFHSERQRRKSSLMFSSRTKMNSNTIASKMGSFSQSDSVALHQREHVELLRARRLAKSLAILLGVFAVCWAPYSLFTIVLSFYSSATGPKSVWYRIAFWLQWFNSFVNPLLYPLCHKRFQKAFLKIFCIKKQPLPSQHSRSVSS
In short: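 Radioligand displacement: compound competes with 8.2 nM [3H]histamine at recombinant human H4 receptor in CHO-K1 membranes (Tris-HCl 50 mM pH 7.4, EDTA 1.25 mM; 25 °C, 90 min), with filter-bound radioactivity counted. IC50 was converted to Ki via Cheng-Prusoff (Kd 5.7 nM); 1.0 μM histamine set nonspecific binding.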

[2] = molecular target: human histamine H1 receptor (Homo sapiens, UniProt P35367); experiment: Evaluation of Human H1 Receptor Affinity ([3H]pyrilamine binding); set-up: purchased PerkinElmer Inc; host or cells: CHO-K1; settings: inhibition constant Ki, CHO-K1 membrane preparation
Sequence of human histamine H1 receptor (P35367 whole entry): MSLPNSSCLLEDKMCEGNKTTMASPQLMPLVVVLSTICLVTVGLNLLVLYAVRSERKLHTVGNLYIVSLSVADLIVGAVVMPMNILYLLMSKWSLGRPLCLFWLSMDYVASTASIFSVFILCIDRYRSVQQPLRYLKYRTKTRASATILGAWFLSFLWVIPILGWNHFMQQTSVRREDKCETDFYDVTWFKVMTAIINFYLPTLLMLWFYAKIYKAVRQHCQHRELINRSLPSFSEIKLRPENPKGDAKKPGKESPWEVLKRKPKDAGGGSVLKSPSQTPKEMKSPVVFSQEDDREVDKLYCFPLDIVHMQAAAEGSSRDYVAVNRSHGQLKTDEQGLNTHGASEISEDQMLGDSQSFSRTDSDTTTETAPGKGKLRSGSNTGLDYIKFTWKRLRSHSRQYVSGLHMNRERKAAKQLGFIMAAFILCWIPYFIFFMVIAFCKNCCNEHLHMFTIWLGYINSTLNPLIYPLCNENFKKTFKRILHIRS
In short: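 Ki values are Cheng-Prusoff conversions of IC50 (Kd 1.1 nM) from radioligand displacement of 1.2 nM [3H]pyrilamine, with 1.0 μM pyrilamine defining nonspecific binding.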

| Compound | Ki [1] [nM] | Ki [2] [nM] |
| --- | --- | --- |
| CC(OCCOCCN1CCN(c2nc(N)nc3c2CCc2cc(OCc4ccc(Cl)cc4)ccc2-3)CC1)C(=O)O (stereo not drawn) [Example 121, 2-(2-(2-(4-(2-amino-8-((4-chlorobenzyl)oxy)-5,6-dihydrobenzo[h]quinazolin-4-yl)piperazin-1-yl)ethoxy)ethoxy)propanoic acid dihydrochloride] | 100 to 500 | < 100 |
| CC(OCCCCN1CCN(c2nc(N)nc3c2CCc2cc(OCc4ccc(Cl)cc4)ccc2-3)CC1)C(=O)O (stereo not drawn) [Example 123, 2-(4-(4-(2-amino-8-((4-chlorobenzyl)oxy)-5,6-dihydrobenzo[h]quinazolin-4-yl)piperazin-1-yl)butoxy)propanoic acid] | 100 to 500 | < 100 |
| Nc1nc2c(c(N3CCN(CCOCCOCC(=O)O)CC3)n1)CCc1cc(OCc3ccc(F)cc3)ccc1-2 [Example 124, 2-(2-(2-(4-(2-amino-8-((4-fluorobenzyl)oxy)-5,6-dihydrobenzo[h]quinazolin-4-yl)piperazin-1-yl)ethoxy)ethoxy)acetic acid] | < 100 | < 100 |
| Nc1nc2c(c(N3CCN(CC(=O)NCCCC(=O)O)CC3)n1)CCc1cc(OCc3ccc(Cl)cc3)ccc1-2 [Example 125, 4-(2-(4-(2-amino-8-((4-chlorobenzyl)oxy)-5,6-dihydrobenzo[h]quinazolin-4-yl)piperazin-1-yl)acetamido)butanoic acid dihydrochloride] | 100 to 500 | < 100 |
| CCC(OCCOCCN1CCN(c2nc(N)nc3c2CCc2cc(OCc4ccc(Cl)cc4)ccc2-3)CC1)C(=O)O (stereo not drawn) [Example 126, 2-(2-(2-(4-(2-amino-8-((4-chlorobenzyl)oxy)-5,6-dihydrobenzo[h]quinazolin-4-yl)piperazin-1-yl)ethoxy)ethoxy)butanoic acid] | < 100 | < 100 |
| Nc1nc2c(c(N3CCN(CCOc4cccc(CC(=O)O)c4)CC3)n1)CCc1cc(OCc3ccc(Cl)cc3)ccc1-2 [Example 130, 2-(3-(2-(4-(2-amino-8-((4-chlorobenzyl)oxy)-5,6-dihydrobenzo[h]quinazolin-4-yl)piperazin-1-yl)ethoxy)phenyl)acetic acid] | 100 to 500 | < 100 |
| Nc1nc2c(c(N3CCN(CCCCn4cc(C(=O)O)cn4)CC3)n1)CCc1cc(OCc3ccc(Cl)cc3)ccc1-2 [Example 132, 1-(4-(4-(2-amino-8-((4-chlorobenzyl)oxy)-5,6-dihydrobenzo[h]quinazolin-4-yl)piperazin-1-yl)butyl)-1H-pyrazole-4-carboxylic acid dihydrochloride] | 100 to 500 | < 100 |
| Nc1nc2c(c(N3CCN(CCOCCn4cc(C(=O)O)cn4)CC3)n1)CCc1cc(OCc3ccc(Cl)cc3)ccc1-2 [Example 133, 1-(2-(2-(4-(2-amino-8-((4-chlorobenzyl)oxy)-5,6-dihydrobenzo[h]quinazolin-4-yl)piperazin-1-yl)ethoxy)ethyl)-1H-pyrazole-4-carboxylic acid dihydrochloride] | < 100 | < 100 |
| Nc1nc2c(c(N3CCN(CCCCOc4ccc(C(=O)O)cc4)CC3)n1)CCc1cc(OCc3ccc(Cl)cc3)ccc1-2 [Example 134, 4-(4-(4-(2-amino-8-((4-chlorobenzyl)oxy)-5,6-dihydrobenzo[h]quinazolin-4-yl)piperazin-1-yl)butoxy)benzoic acid hydrochloride] | 100 to 500 | < 100 |
| Nc1nc2c(c(N3CCN(CCOc4ccccc4CC(=O)O)CC3)n1)CCc1cc(OCc3ccc(Cl)cc3)ccc1-2 [Example 136, 2-(2-(2-(4-(2-amino-8-((4-chlorobenzyl)oxy)-5,6-dihydrobenzo[h]quinazolin-4-yl)piperazin-1-yl)ethoxy)phenyl)acetic acid dihydrochloride] | 100 to 500 | < 100 |
| Nc1nc2c(c(N3CCN(CCOc4ccc(CC(=O)O)cc4)CC3)n1)CCc1cc(OCc3ccc(Cl)cc3)ccc1-2 [Example 137, 2-(4-(2-(4-(2-amino-8-((4-chlorobenzyl)oxy)-5,6-dihydrobenzo[h]quinazolin-4-yl)piperazin-1-yl)ethoxy)phenyl)acetic acid dihydrochloride] | < 100 | < 100 |
| Nc1nc2c(c(N3CCN(CCOCCn4ccc(C(=O)O)n4)CC3)n1)CCc1cc(OCc3ccc(Cl)cc3)ccc1-2 [Example 138, 1-(2-(2-(4-(2-amino-8-((4-chlorobenzyl)oxy)-5,6-dihydrobenzo[h]quinazolin-4-yl)piperazin-1-yl)ethoxy)ethyl)-1H-pyrazole-3-carboxylic acid dihydrochloride] | 100 to 500 | < 100 |
| Nc1nc2c(c(N3CCN(CCc4cccc(OCC(=O)O)c4)CC3)n1)CCc1cc(OCc3ccc(Cl)cc3)ccc1-2 [Example 139, 2-(3-(2-(4-(2-amino-8-((4-chlorobenzyl)oxy)-5,6-dihydrobenzo[h]quinazolin-4-yl)piperazin-1-yl)ethyl)phenoxy)acetic acid dihydrochloride] | 100 to 500 | < 100 |
| Nc1nc2c(c(N3CCN(CCc4ccc(OCC(=O)O)cc4)CC3)n1)CCc1cc(OCc3ccc(Cl)cc3)ccc1-2 [Example 140, 2-(4-(2-(4-(2-amino-8-((4-chlorobenzyl)oxy)-5,6-dihydrobenzo[h]quinazolin-4-yl)piperazin-1-yl)ethyl)phenoxy)acetic acid dihydrochloride] | 100 to 500 | < 100 |
| Nc1nc2c(c(N3CCN(CCCCOC4CC(C(=O)O)C4)CC3)n1)CCc1cc(OCc3ccc(Cl)cc3)ccc1-2 (stereo not drawn) [Example 141, 3-(4-(4-(2-amino-8-((4-chlorobenzyl)oxy)-5,6-dihydrobenzo[h]quinazolin-4-yl)piperazin-1-yl)butoxy)cyclobutane-1-carboxylic acid dihydrochloride] | 100 to 500 | < 100 |
| Nc1nc2c(c(N3CCN(CCOCc4nc(C(=O)O)cs4)CC3)n1)CCc1cc(OCc3ccc(OC(F)(F)F)cc3)ccc1-2 [Example 142, 2-((2-(4-(2-amino-8-((4-(trifluoromethoxy)benzyl)oxy)-5,6-dihydrobenzo[h]quinazolin-4-yl)piperazin-1-yl)ethoxy)methyl)thiazole-4-carboxylic acid dihydrochloride] | < 100 | < 100 |
| Nc1nc2c(c(N3CCN(CCCOCc4nnn[nH]4)CC3)n1)CCc1cc(OCc3ccc(Cl)cc3)ccc1-2 [Example 144, 4-(4-(3-((tetrazol-5-yl)methoxy)propyl)piperazin-1-yl)-8-((4-chlorobenzyl)oxy)-5,6-dihydrobenzo[h]quinazolin-2-amine bis(trifluoroacetate)] | < 100 | < 100 |
| Nc1nc2c(c(N3CCN(CCCCOCc4nnn[nH]4)CC3)n1)CCc1cc(OCc3ccc(Cl)cc3)ccc1-2 [Example 145, 4-(4-(4-((tetrazol-5-yl)methoxy)butyl)piperazin-1-yl)-8-((4-chlorobenzyl)oxy)-5,6-dihydrobenzo[h]quinazolin-2-amine bis(trifluoroacetate)] | < 100 | < 100 |
| Nc1nc2c(c(N3CCN(CCO[C@H]4C[C@@H]5[C@H](C4)[C@H]5C(=O)O)CC3)n1)CCc1cc(OCc3ccc(OC(F)(F)F)cc3)ccc1-2 [Example 146, (1R,3r,5S,6r)-3-(2-(4-(2-amino-8-((4-(trifluoromethoxy)benzyl)oxy)-5,6-dihydrobenzo[h]quinazolin-4-yl)piperazin-1-yl)ethoxy)bicyclo[3.1.0]hexane-6-carboxylic acid] | 100 to 500 | < 100 |
| Nc1nc2c(c(N3CCN(CCO[C@@H]4C[C@@H]5[C@H](C4)[C@H]5C(=O)O)CC3)n1)CCc1cc(OCc3ccc(OC(F)(F)F)cc3)ccc1-2 [Example 147, (1R,3s,55,6r)-3-(2-(4-(2-amino-8-((4-(trifluoromethoxy)benzyl)oxy)-5,6-dihydrobenzo[h]quinazolin-4-yl)piperazin-1-yl)ethoxy)bicyclo[3.1.0]hexane-6-carboxylic acid] | < 100 | < 100 |
| Nc1nc2c(c(N3CCN(CCO[C@@H]4C[C@@H]5[C@H](C4)[C@@H]5C(=O)O)CC3)n1)CCc1cc(OCc3ccc(OC(F)(F)F)cc3)ccc1-2 [Example 148, (1R,3s,5S,6s)-3-(2-(4-(2-amino-8-((4-(trifluoromethoxy)benzyl)oxy)-5,6-dihydrobenzo[h]quinazolin-4-yl)piperazin-1-yl)ethoxy)bicyclo[3.1.0]hexane-6-carboxylic acid] | 100 to 500 | < 100 |
| COC(=O)CC1CN(C(=O)OCCN2CCN(c3nc(N)nc4c3CCc3cc(OCc5ccc(Cl)cc5)ccc3-4)CC2)C1 [Example 149, 2-(4-(2-amino-8-((4-chlorobenzyl)oxy)-5,6-dihydrobenzo[h]quinazolin-4-yl)piperazin-1-yl)ethyl 3-(2-methoxy-2-oxoethyl)azetidine-1-carboxylate] | 100 to 500 | < 100 |
| COC(=O)C1CN(C(=O)OCCN2CCN(c3nc(N)nc4c3CCc3cc(OCc5ccc(Cl)cc5)ccc3-4)CC2)C1 [Example 150, 1-(2-(4-(2-amino-8-((4-chlorobenzyl)oxy)-5,6-dihydrobenzo[h]quinazolin-4-yl)piperazin-1-yl)ethyl) 3-methyl azetidine-1,3-dicarboxylate] | 100 to 500 | < 100 |
| Nc1nc2c(c(N3CCN(CCOCC45C6C7C4C4C5C6C74C(=O)O)CC3)n1)CCc1cc(OCc3ccc(Cl)cc3)ccc1-2 (stereo not drawn) [Example 151, 4-((2-(4-(2-amino-8-((4-chlorobenzyl)oxy)-5,6-dihydrobenzo[h]quinazolin-4-yl)piperazin-1-yl)ethoxy)methyl)pentacyclo[4.2.0.0^2.5.0^3.8.0^4.7]octane-1-carboxylic acid dihydrochloride] | < 100 | < 100 |
